Measured values: PubChem BioAssay (NCI)
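Abbreviation: GI50, concentration required for 50% inhibition of growth. TGI: total growth inhibition.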

What was measured:
Assay in all cases: DTP human tumour cell line panel, 384-well format
[1] = system: SW-620 colon
[2] = system: OVCAR-4 ovarian
[3] = system: NCI-H23 lung
[4] = system: PC-3 prostate
[5] = system: UACC-62 melanoma
[6] = system: EKVX NSCLC
[7] = system: OVCAR-5 ovarian
[8] = system: NCI-H522 lung
[9] = system: U251 glioblastoma
[10] = system: SK-OV-3 ovarian
[11] = system: DU-145 prostate
[12] = system: CAKI-1 renal
[13] = system: UACC-257 melanoma
[14] = system: KM12 colon
[15] = system: RPMI-8226 leukemia
[16] = system: LOX IMVI melanoma
[17] = system: MDA-MB-435 melanoma
[18] = system: HS 578T breast
[19] = system: HOP-62 NSCLC
[20] = system: RXF 393 renal
[21] = system: 786-0 renal
[22] = system: SR leukemia
[23] = system: T-47D breast
[24] = system: SK-MEL-5 melanoma
[25] = system: MCF7 breast
[26] = system: OVCAR-3 ovarian
[27] = system: A549 NSCLC
[28] = system: HL-60(TB) leukemia
[29] = system: MOLT-4 leukemia
[30] = system: SNB-75 CNS
[31] = system: NCI-H322M lung
[32] = system: SN12C renal
[33] = system: M14 melanoma
[34] = system: HOP-92 NSCLC
[35] = system: K-562 leukemia
[36] = system: SK-MEL-2 melanoma
[37] = system: UO-31 renal
[38] = system: OVCAR-8 ovarian
[39] = system: COLO 205 colon
[40] = system: HCT-116 colon
[41] = system: HCC-2998 colon
[42] = system: ACHN renal
[43] = system: SNB-19 CNS
[44] = system: SF-268 CNS
[45] = system: CCRF-CEM leukemia
[46] = system: BT-549 breast
[47] = system: SF-295 CNS

Nc1ncn(C2OC(CO)C(O)C2O)c(=O)n1 (stereo not drawn)
GI50 [1]: 2250 nM | TGI [1]: > 34700 nM | GI50 [2]: 3330 nM | TGI [2]: 23800 nM | GI50 [3]: 7250 nM | TGI [3]: 28400 nM | GI50 [4]: 4160 nM | TGI [4]: 42100 nM | GI50 [5]: 561 nM | TGI [5]: 2780 nM | GI50 [6]: 19500 nM | TGI [6]: > 75800 nM | GI50 [7]: 3220 nM | TGI [7]: 23000 nM | GI50 [8]: 1580 nM | TGI [8]: 6410 nM | GI50 [9]: 1420 nM | TGI [9]: > 33200 nM | GI50 [10]: 3180 nM | TGI [10]: > 27700 nM | GI50 [11]: 1100 nM | TGI [11]: 6530 nM | GI50 [12]: 466 nM | TGI [12]: 4350 nM | GI50 [13]: 6880 nM | TGI [13]: 33300 nM | GI50 [14]: 2540 nM | TGI [14]: 11800 nM | GI50 [15]: 138 nM | TGI [15]: 590 nM | GI50 [16]: 531 nM | TGI [16]: 1850 nM | GI50 [17]: 1710 nM | TGI [17]: 8650 nM | GI50 [18]: 1380 nM | TGI [18]: 7120 nM | GI50 [19]: 899 nM | TGI [19]: 3510 nM | GI50 [20]: 1250 nM | TGI [20]: 10900 nM | GI50 [21]: 1870 nM | TGI [21]: > 42300 nM | GI50 [22]: 165 nM | TGI [22]: 423 nM | GI50 [23]: 4670 nM | TGI [23]: > 37600 nM | GI50 [24]: 628 nM | TGI [24]: 2120 nM | GI50 [25]: 1560 nM | TGI [25]: > 29800 nM | GI50 [26]: 1460 nM | TGI [26]: 5060 nM | GI50 [27]: 3240 nM | TGI [27]: > 38000 nM | GI50 [28]: 372 nM | TGI [28]: 806 nM | GI50 [29]: 1320 nM | TGI [29]: 2720 nM | GI50 [30]: 2230 nM | GI50 [31]: 1520 nM | TGI [31]: 25700 nM | GI50 [32]: 1580 nM | TGI [32]: 35700 nM | GI50 [33]: 1450 nM | TGI [33]: 9780 nM | GI50 [34]: 2360 nM | TGI [34]: 30000 nM | GI50 [35]: 657 nM | TGI [35]: 5410 nM | GI50 [36]: 911 nM | TGI [36]: 2850 nM | GI50 [37]: 2500 nM | TGI [37]: 15100 nM | GI50 [38]: 1990 nM | TGI [38]: 17800 nM | GI50 [39]: 1410 nM | TGI [39]: 10900 nM | GI50 [40]: 627 nM | TGI [40]: 2570 nM | GI50 [41]: 1580 nM | TGI [41]: 5010 nM | GI50 [42]: 1300 nM | TGI [42]: 17000 nM | GI50 [43]: 4470 nM | TGI [43]: > 42200 nM | GI50 [44]: 4360 nM | TGI [44]: > 31900 nM | GI50 [45]: 993 nM | TGI [45]: 3670 nM | GI50 [46]: 694 nM | TGI [46]: 3310 nM | GI50 [47]: 2780 nM | TGI [47]: 16500 nM
